For three compounds, IC50 results are on record in patent US8207134B2, “Fused ring spiroketal derivative and use thereof as anti-diabetic drug” (Chugai Seiyaku Kabushiki Kaisha, priority 2006, dated 2012).

The assay concerns the target T1, human SGLT2 (Homo sapiens, UniProt P31639).
T1 construct: expressed in transfected cells; host or cells: CHO-K1
T1 sequence (P31639 1-672): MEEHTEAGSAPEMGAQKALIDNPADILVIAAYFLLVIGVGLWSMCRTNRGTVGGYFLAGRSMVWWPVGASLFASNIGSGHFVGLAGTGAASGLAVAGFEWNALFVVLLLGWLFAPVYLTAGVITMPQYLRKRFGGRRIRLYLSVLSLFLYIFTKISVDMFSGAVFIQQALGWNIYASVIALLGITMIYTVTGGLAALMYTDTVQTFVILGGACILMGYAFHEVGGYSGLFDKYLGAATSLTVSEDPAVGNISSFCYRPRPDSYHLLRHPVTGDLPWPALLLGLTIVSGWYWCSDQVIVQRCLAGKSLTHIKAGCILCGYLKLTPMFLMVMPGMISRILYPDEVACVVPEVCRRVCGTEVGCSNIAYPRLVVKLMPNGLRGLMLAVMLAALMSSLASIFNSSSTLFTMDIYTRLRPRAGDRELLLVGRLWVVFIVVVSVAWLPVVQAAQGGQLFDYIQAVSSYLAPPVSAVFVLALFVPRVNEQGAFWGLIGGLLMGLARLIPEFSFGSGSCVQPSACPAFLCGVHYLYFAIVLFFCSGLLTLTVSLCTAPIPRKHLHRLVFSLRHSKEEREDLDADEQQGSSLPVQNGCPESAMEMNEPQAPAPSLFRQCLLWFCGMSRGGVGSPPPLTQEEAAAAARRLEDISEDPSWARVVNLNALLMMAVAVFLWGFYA
The assay can be described thus: Inhibitory activity against methyl-α-D-glucopyranoside uptake of human Na+-glucose cotransporter SGLT2. It counts as cell-based. The settings on record: CHO-K1 cells stably expressing human SGLT2; methyl-α-D-(U-14C)glucopyranoside uptake, 37° C. for 45 minutes; read-out: Ic50 value (inhibition of SGLT2). An excerpt: Evaluation of Inhibitory Activity Against Methyl-α-D-Glucopyranoside Uptake of Human Na^+-Glucose Cotransporter (SGLT1 and SGLT2)
2) Construction of Human SGLT2 Expression Vector
Human SGLT2 cDNA was amplified by PCR with a cDNA library derived from human kidney (Clontech) as a template, synthetic DNA primers and KOD+ DNA Polymerase. The amplified cDNA was inserted into pcRII-Topo vector by using a Topo TA Cloning Dual Promoter kit. E. coli competent cells (TPO10) were transformed with the plasmid vector, cultured in LB medium containing ampicillin (50 mg/L) to grow ampicillin-resistant clones. The plasmid vector containing human SGLT2 cDNA was purified from the clone in a standard manner. Human SGLT2 cDNA added restriction enzyme recognition sites (Xho I at 5′-end, Hind III at 3′-end) was amplified by PCR with the plasmid vector as a template, synthetic DNA primers containing an additional restriction enzyme recognition site and KOD+ DNA Polymerase. This amplified cDNA was digested with Xho I and Hind III, and ligated into expression vector pcDNA3.1(−) digested with Xho I and Hind III by using a Rapid DNA Ligation kit. E. coli competent cells (DH5α) were transformed with the ligated expression vector and grown in ampicillin-containing LB medium. Human SGLT2 expression vector was purified from the ampicillin-resistant clone in a standard manner.
3) Establishment of Cell Lines Stably Expressing Human SGLT1 or Human SGLT2
The human SGLT1 expression vector or the human SGLT2 expression vector was digested with the restriction enzyme Pvu I and transfected into CHO-Kl cells with FuGENE (Roche Diagonostics). After the transfection, the cells were cultured at 37° C. in the presence of 5% CO2 for about 3 weeks in DMEM medium (Gibco) containing penicillin (50 U/mL, SIGMA), streptomycin (50 mg/L, SIGMA), geneticin (200 mg/L, Nacalai Tesque, Inc., Japan) and 20% fetal bovine serum to obtain geneticin-resistant clones. […]

`CCc1ccc(Cc2cccc3c4c(sc23)C2(OCC4)O[C@H](CO)[C@@H](O)[C@H](O)[C@H]2O)cc1` (stereo in doubt) [Example 3, (1S,3′R,4′S,5′S,6′R)-8-[(4-ethylphenyl)methyl]-3,3′,4,4′,5′,6′-hexahydro-6′-hydroxymethyl-spiro[2-oxa-9-thia-fluorene-1,2′-[2H]pyran]-3′,4′,5′-triol]: the IC50 came to 5.1 nM.

Regarding `CCc1ccc(Cc2csc3cc4c(cc23)[C@]2(OC4)O[C@H](CO)[C@@H](O)[C@H](O)[C@H]2O)cc1` [Example 1, (3′R,4′S,5S,5′S,6′R)-3-[(4-ethylphenyl)methyl]-6′-(hydroxymethyl)-3′,4′,5′,6′-tetrahydro-spiro[thieno[2,3,f]isobenzofuran-5(7H),2′-[2H]pyran]-3′,4′,5′-triol], the IC50 was determined as 3.9 nM.

For the compound `CCc1ccc(Cn2ccc3cc4c(cc32)[C@]2(OC4)O[C@H](CO)[C@@H](O)[C@H](O)[C@H]2O)cc1` [Example 2, (3′R,4′S,5′S,6′R,7S)-1-[(4-ethylphenyl)methyl]-6′-hydroxymethyl-3′,4,5′,6′-tetrahydro-spiro[furo[3,4,f]indole-7(5H),2′-[2H]pyran]-3′,4′,5′-triol], the IC50 was determined as 2 nM.
